{"source": "patent US20040176387A1", "about": "“Method of treating peripheral vascular diseases, peripheral neuropathies, and autonomic neuropathies” (Pfizer Inc, priority 2000, published 2004)", "type_in_all_cases": "in vivo, human", "key": {"[1]": {"assay": "Sildenafil treatment of erectile dysfunction in patients (case reports)", "protocol": "Patient #2 was suffering from chronic changes of both lower extremities secondary to peripheral vascular disease and diabetes mellitus. […] Patient #4 suffered from erectile dysfunction. They also suffered from onychiomycosis (fungal infection of the nailbed). They were placed on sildenafil treatment taking one 50 mg pill on an as-needed basis."}, "[2]": {"assay": "Sildenafil treatment of chronic lower extremity changes secondary to peripheral vascular disease (case report)", "details": "Patient #2; diabetes mellitus", "text": "Patient #2 was suffering from chronic changes of both lower extremities secondary to peripheral vascular disease and diabetes mellitus."}, "[3]": {"test_system": "onychiomycosis (fungal infection of the nailbed)", "assay": "Sildenafil treatment of onychiomycosis (fungal infection of the nailbed) (case report)", "text": "In regards to other uses of cycli guanosine 3′,5′-monophosphate type five (cGMP PDE5) inhibitors, including the compound sildenafil, for which we have shown is effective in the treatment of diabetic foot ulcers, it is also within the concept of the present invention to treat other peripheral vascular diseases such as Raynaud's Phenomenon, including CREST syndrome, autoimmune diseases such as systemic lupus erythematosis, rheumatoid diseases and diabetic retinopathies. The treatment of the present invention would also be beneficial in peripheral and autonomic neuropathies or any other disease entity that results from small vessel disease and directly large vessel disease. […] The patient in this case was requesting treatment for erectile dysfunction and again the inventor discovered this unexpected beneficial result. The inventor has observed such results in varied diseases which have the common element of peripheral vascular disease or peripheral neuropathy. The beneficial effect of the method is believed to be due to increase vascular flow of the small vessels which aided the body in healing itself. Patient #4 suffered from erectile dysfunction. They also suffered from onychiomycosis (fungal infection of the nailbed). They were placed on sildenafil treatment taking one 50 mg pill on an as-needed basis."}, "[4]": {"assay": "Sildenafil treatment of diabetic foot ulcer in patients (case reports)", "text": "During the treatment of-the erectile dysfunction it was noted that the foot ulcer was healing. This foot ulcer began approximately two years prior and the patient had been through vascular studies, had seen vascular surgeons, podiatrists, and had been in wound care clinics with minimal results at best. They had also been hospitalized for approximately a month on IV antibiotics, etc. and the threat was very real that the patient was going to require a below the knee amputation. The ulcer would appear to be healing at times only to reoccur to its pretreatment size and depth."}, "[5]": {"details": "Patient #4, one 50 mg pill on an as-needed basis"}}}
{"smiles": "CCCc1nn(C)c2c(=O)[nH]c(-c3cc(S(=O)(=O)N4CCN(C)CC4)ccc3OCC)nc12", "note": "[sildenafil, 5-[2-ethoxy-5-(4-methylpiperazin 1-ylsulphonyl)-phenyl]-1,6-dihydro-1-methyl-3-propylpyrazolo [4,3-d] pyrimidine-7-one]", "values": [{"measurement": "erectile dysfunction", "setting": "[1]; Patient #2, diabetes mellitus and peripheral vascular disease", "value": "significantly improve"}, {"measurement": "erectile dysfunction", "setting": "[1]; [5]", "value": "improved"}, {"measurement": "chronic changes of both lower extremities secondary to peripheral vascular disease", "setting": "[2]", "value": "significantly improved or resolved completely"}, {"measurement": "fungal infection (onychiomycosis)", "setting": "[3]; [5]", "value": "cured"}, {"measurement": "onychiomycosis, particularly of the lower extremity", "setting": "[3]; treated exclusively with sildenafil, without antifungal medication", "value": "resolved completely"}, {"measurement": "diabetic foot ulcer size after sildenafil treatment began", "setting": "[4]; Patient #1, insulin dependent diabetic, sildenafil taken for erectile dysfunction, before daily dosing", "value": "the ulcer was decreasing in the size"}, {"measurement": "resolution of diabetic foot ulcer", "setting": "[4]; Patient #1, 50 mg of sildenafil once a day, ulcer began approximately two years prior", "value": "complete resolution of the diabetic food ulcer in one month"}, {"measurement": "reoccurrence of diabetic foot ulcer", "setting": "[4]; Patient #1, continued on 50 mg once a day for the past two years", "value": "without reoccurrence"}, {"measurement": "effectiveness in the treatment of foot ulcers related to diabetes", "setting": "[4]; general statement, diabetic patients", "value": "very effective"}]}
